Tested on: leucocytes et de neutrophiles circulants
Experiment: Leucocyte, neutrophil and myelocyte counts after oral Muradimétide with non-myelotoxic or myelotoxic i.v. AZT (Example 8, figures 1-3)
Format: in vivo, souris Swiss femelles
Conditions: Muradimétide 25 mg/kg p.o. 4 h before AZT 5 or 40 mg/kg i.v., days 0-3; time after start of treatment
Experimental: La figure 1 montre l'effet d'un traitement per os des souris avec du Muradimétide en association avec des doses d'AZT non myélotoxiques (5 mg par kg) (Fig 1A) ou myélotoxiques (40mg par kg) (Fig 1B) sur le changement des leucocytes circulants.
La figure 2 représente le même type de courbe sur la numération des neutrophiles; la figure 2A représente une expérience réalisée avec une dose non myélotoxique d'AZT (5 mg par kg) et la figure 2B avec une dose myélotoxique d'AZT (40 mg par kg).
La figure 3 représente le même type de courbe sur la numération des myélocytes. La figure 3A se rapporte à une dose non myélotoxique d'AZT (5mg/kg) et la figure 3B à une dose myélotoxique (40 mg/kg).
Cet effet est indiqué sur les figures 1 et 2, les figures 1A et 2A représentant une dose non myélotoxique d'AZT et les figures 1B et 2B représentant une dose myélotoxique d'AZT.
Dans cette expérience, des souris Swiss femelles ont été injectées par voie intra-veineuse avec de l'AZT à la dose de 5 ou de 40 mg par kg aux jours 0, 1, 2 et 3. Sur chacun des 4 jours et 4 heures avant l'administration d'AZT, des groupes de souris constitués de 5 individus ont reçu per os soit du tampon soit du Muradimétide à la dose de 25 mg par kg.
Les comptages cellulaires sont effectués aux jours 0, 1, 2, 3, 4 et 7. […]

SMILES: COC(=O)CC[C@@H](NC(=O)[C@H](C)NC(=O)[C@@H](C)O[C@H]1[C@H](O)[C@@H](CO)OC(O)[C@@H]1NC(C)=O)C(=O)OC (stereo partly drawn) [Muradimétide, Nac-Mur-L-Ala-D-Glu-[OCH3]-OCH3]
- temps de l'effet maximum (leucocytes, neutrophiles, myélocytes): 4 jours

— patent publication EP0819136B1, “MDP DERIVATIVES AND CONJUGATES HAVING HAEMATOPOIETIC FUNCTION STIMULATING ACTIVITY, AND COMPOSITIONS CONTAINING SAME” (VACSYN S.A., priority 1995, dated 1996)
